Three compounds from PMC9739792, “Screening and Molecular Mechanisms of Novel ACE-Inhibitory Peptides from Gracilariopsis lemaneiformis” (International Journal of Molecular Sciences, 2022) can be followed below.

Where no end group is shown, it is not given here.

The target in one test is T1, ACE from rabbit lung (Oryctolagus cuniculus, UniProt P12822).
T1 construct: ACE from rabbit lung (EC3.4.15.1); purchased Sigma-Aldrich; host or cells: rabbit lung tissue
T1 sequence (P12822 34-1310): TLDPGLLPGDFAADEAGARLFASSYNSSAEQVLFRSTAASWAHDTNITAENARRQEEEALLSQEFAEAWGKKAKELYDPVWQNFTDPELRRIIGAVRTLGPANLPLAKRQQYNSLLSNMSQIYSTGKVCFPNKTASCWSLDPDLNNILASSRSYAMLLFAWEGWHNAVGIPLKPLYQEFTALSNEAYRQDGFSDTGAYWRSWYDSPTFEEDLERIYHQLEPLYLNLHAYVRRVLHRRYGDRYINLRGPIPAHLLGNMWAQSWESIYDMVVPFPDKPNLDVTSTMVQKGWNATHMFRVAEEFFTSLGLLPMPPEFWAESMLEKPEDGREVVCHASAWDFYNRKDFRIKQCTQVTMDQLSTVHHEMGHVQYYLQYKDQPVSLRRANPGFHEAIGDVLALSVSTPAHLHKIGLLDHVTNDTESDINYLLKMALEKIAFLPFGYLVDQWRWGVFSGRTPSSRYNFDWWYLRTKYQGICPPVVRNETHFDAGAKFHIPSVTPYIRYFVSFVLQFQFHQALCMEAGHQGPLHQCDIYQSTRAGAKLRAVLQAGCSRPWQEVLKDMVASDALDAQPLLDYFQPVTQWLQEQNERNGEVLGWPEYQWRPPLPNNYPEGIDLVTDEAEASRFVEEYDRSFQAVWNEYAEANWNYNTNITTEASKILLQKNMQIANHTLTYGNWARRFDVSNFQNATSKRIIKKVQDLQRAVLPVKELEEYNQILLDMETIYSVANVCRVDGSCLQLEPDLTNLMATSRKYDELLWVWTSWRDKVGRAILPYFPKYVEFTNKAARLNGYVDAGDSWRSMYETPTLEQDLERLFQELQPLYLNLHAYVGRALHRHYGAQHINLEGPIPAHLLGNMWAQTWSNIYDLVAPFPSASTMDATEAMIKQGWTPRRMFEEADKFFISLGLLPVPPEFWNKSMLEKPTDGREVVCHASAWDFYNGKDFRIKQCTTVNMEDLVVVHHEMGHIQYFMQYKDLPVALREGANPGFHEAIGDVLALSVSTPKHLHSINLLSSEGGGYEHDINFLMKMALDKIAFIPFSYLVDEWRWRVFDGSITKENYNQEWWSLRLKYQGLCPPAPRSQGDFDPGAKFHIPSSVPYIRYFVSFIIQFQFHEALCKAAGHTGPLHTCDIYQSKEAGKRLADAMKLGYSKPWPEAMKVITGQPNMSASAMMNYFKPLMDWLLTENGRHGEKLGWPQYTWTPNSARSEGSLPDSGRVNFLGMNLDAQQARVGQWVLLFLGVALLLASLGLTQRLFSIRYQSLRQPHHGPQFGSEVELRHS
Description: ACE-inhibitory activity assay (HHL substrate, hippuric acid by RP-HPLC). The test is classed as biochemical. Particulars: HHL 5 mM, pH 8.3, 37 °C, 45 min; for inhibition at 1000 µg/mL: synthetic peptides dissolved at 1 mg/mL; for IC50: synthetic peptides, mean ± SD, SD, read-out: IC50 of ACE inhibition. The method, then:
The ACE-inhibitory activity was determined according to the method of Ma et al., with some modification. Briefly, 50 µL of sample in 0.1 mol/L borate buffer (pH 8.3, containing 0.3 M NaCl) was mixed with 150 µL of 5 mM hippuryl-l-histidyl-l-leucine (HHL) and incubated at 37 °C for 10 min. Then, the reaction was initiated by adding 50 µL of ACE solution (50 mU/mL) and incubating at 37 °C for 45 min. The reaction was then stopped by the addition of 250 µL of 1 M HCl. The formation of hippuric acid (HA) was measured by RP-HPLC (Waters, Milford, MA, USA) at 220 nm.
The screened and predicted potential ACE-inhibitory peptides were chemically synthesized at Genscript biotech corporation (Nanjing, China) using the Fmoc solid-phase method. […] Synthetic peptides were dissolved at 1 mg/mL for validation of their ACE-inhibitory activity.

The test system of test [1] is spontaneously hypertensive rats (SHR). Description: Antihypertensive effect of GLP in SHR after oral administration. It is filed as in vivo, rat. Particulars: captopril 30 mg/kg·bw. The method, then:
SHRs (male, 10 weeks, 220 ± 20 g body weight) were supplied by Vital River Laboratory Animal Technology Co., Ltd. (Beijing, China). […] Three doses of GLP (1200, 1500, 1800 mg/kg of body weight, BW) was orally administered to SHRs. The blank group (saline) and Captopril (30 mg/kg·bw) group were used as negative and positive control, respectively. BP-98A blood pressure monitor (Softron Biotechnology, Beijing, China) was used to determine blood pressure by the tail-cuff method. […] Animals were treated in accordance with the guidelines of the National Institutes of Health and Use of Laboratory Animals.

Broadly, the inhibition is the share of the control response that was lost under treatment. In general, IC50 refers to the concentration at which inhibition is half-maximal. Turning to RLVPVPY [RLVPVPY], at ACE from rabbit lung, the inhibition at 1000 µg/mL was 87.7% and the IC50 was 9.18 ± 0.42 µM.

Turning to `C[C@H](CS)C(=O)N1CCC[C@H]1C(=O)O` [captopril], in test [1], the “time course of antihypertensive effect compared with GLP” value is on record as “reached its maximum effect faster than GLP”.

For the compound SFYYGK [SFYYGK], at ACE from rabbit lung, the inhibition at 1000 µg/mL worked out at 94.2% and the concentration for half-maximal inhibition (IC50) worked out at 6.45 ± 0.22 µM.
